Measured values taken from PubChem BioAssay (NCI).
Several values for one entry are separate records, joined by “and”; a condition that tells them apart may be missing. Identical values can stand only once.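 Assay format: 96-well plates, 48-hour exposure. GI50 marks 50% less growth. TGI denotes the concentration required for complete inhibition of growth.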

How the values were obtained:
Assay in all cases: growth of human tumour cells (NCI), 48 h
COLO 205 colon = test system: COLO 205 colon
HCT-116 colon = test system: HCT-116 colon
HOP-92 NSCLC = test system: HOP-92 NSCLC
NCI-H226 lung = test system: NCI-H226 lung
RXF 393 renal = test system: RXF 393 renal
SK-MEL-2 melanoma = test system: SK-MEL-2 melanoma
SNB-19 CNS = test system: SNB-19 CNS
UACC-257 melanoma = test system: UACC-257 melanoma
NCI/ADR-RES ovarian = test system: NCI/ADR-RES ovarian
T-47D breast = test system: T-47D breast

CCCC(=O)N[C@H]1C2C3CC4C5CC(C42)C1(C)C53 (stereo partly specified)
TGI (COLO 205 colon): > 100 µM
TGI (HCT-116 colon): > 100 µM
TGI (HOP-92 NSCLC): > 100 µM
TGI (NCI-H226 lung): > 100 µM
TGI (RXF 393 renal): > 100 µM
TGI (SK-MEL-2 melanoma): > 100 µM
TGI (SNB-19 CNS): > 100 µM
TGI (UACC-257 melanoma): > 100 µM

O=C([O][Sn]([O]C(=O)c1ccccn1)([c]1ccccc1)[c]1ccccc1)c1ccccn1
GI50 (COLO 205 colon): 6.28 µM
TGI (COLO 205 colon): 19.4 µM
GI50 (HCT-116 colon): 1.71 µM
TGI (HCT-116 colon): 3.11 µM
GI50 (NCI-H226 lung): 14.7 µM
TGI (NCI-H226 lung): 29.6 µM
GI50 (NCI/ADR-RES ovarian): 11.8 µM
TGI (NCI/ADR-RES ovarian): 24.8 µM
GI50 (RXF 393 renal): 2.77 µM
TGI (RXF 393 renal): 13 µM
GI50 (SK-MEL-2 melanoma): 2.57 µM
TGI (SK-MEL-2 melanoma): 6.26 µM
GI50 (SNB-19 CNS): 15.5 µM
TGI (SNB-19 CNS): 29.1 µM
GI50 (T-47D breast): 1.56 µM
TGI (T-47D breast): 3.33 µM
GI50 (UACC-257 melanoma): 1.62 µM
TGI (UACC-257 melanoma): 3.61 µM

NCCOCCOCCNc1nc(-c2ccc(Cl)cc2)nc(N2CCN(c3ccccn3)CC2)n1
GI50 (HCT-116 colon): 1.75 µM
TGI (HCT-116 colon): 3.22 µM
GI50 (HOP-92 NSCLC): 2.36 µM
TGI (HOP-92 NSCLC): 7.57 µM
GI50 (NCI-H226 lung): 13.7 µM
TGI (NCI-H226 lung): 39.9 µM
GI50 (NCI/ADR-RES ovarian): 3.66 µM
TGI (NCI/ADR-RES ovarian): 16 µM
GI50 (RXF 393 renal): 2.28 µM
TGI (RXF 393 renal): 5.76 µM
GI50 (T-47D breast): 3.09 µM
TGI (T-47D breast): 9.94 µM
GI50 (UACC-257 melanoma): 1.87 µM
TGI (UACC-257 melanoma): 3.55 µM

CC(C)=CCC(OC(=O)C=C(C)C)C1=CC(=O)c2c(O)ccc(O)c2C1=O (stereo unspecified)
GI50 (COLO 205 colon): 0.751 µM
TGI (COLO 205 colon): 2.12 µM and 1.37 µM
GI50 (HCT-116 colon): 0.63 µM
TGI (HCT-116 colon): 2.68 µM and 1.04 µM
GI50 (HOP-92 NSCLC): 0.365 µM
TGI (HOP-92 NSCLC): 1.38 µM and 1.29 µM
GI50 (NCI-H226 lung): 1.99 µM
TGI (NCI-H226 lung): 4.02 µM and 6.72 µM
GI50 (NCI/ADR-RES ovarian): 3.68 µM
TGI (NCI/ADR-RES ovarian): 29.5 µM and 3.16 µM
TGI (RXF 393 renal): 0.533 µM and 0.467 µM
GI50 (SK-MEL-2 melanoma): 2.97 µM
TGI (SK-MEL-2 melanoma): 12.1 µM and 5.85 µM
GI50 (SNB-19 CNS): 21.9 µM
TGI (SNB-19 CNS): 40.2 µM and 15.3 µM
GI50 (UACC-257 melanoma): 1.51 µM
TGI (UACC-257 melanoma): 4.15 µM and 2.5 µM

CC(=O)[O-].[Mn+3].[O-]c1ccccc1C=NCCNCCN=Cc1ccccc1[O-]
GI50 (HCT-116 colon): > 100 µM
TGI (HCT-116 colon): > 100 µM
GI50 (NCI-H226 lung): > 100 µM
TGI (NCI-H226 lung): > 100 µM
GI50 (RXF 393 renal): > 100 µM
TGI (RXF 393 renal): > 100 µM
GI50 (SK-MEL-2 melanoma): > 100 µM
TGI (SK-MEL-2 melanoma): > 100 µM
GI50 (SNB-19 CNS): > 100 µM
TGI (SNB-19 CNS): > 100 µM
GI50 (UACC-257 melanoma): > 100 µM
TGI (UACC-257 melanoma): > 100 µM

Cc1c(-c2ccnc(N)n2)c2c(n1Cc1ccccc1)C(=O)c1ccccc1C2=O
GI50 (COLO 205 colon): 15.5 µM
TGI (COLO 205 colon): 43.9 µM
GI50 (HCT-116 colon): 3.7 µM
TGI (HCT-116 colon): 16.6 µM
GI50 (HOP-92 NSCLC): > 100 µM
TGI (HOP-92 NSCLC): > 100 µM
GI50 (NCI/ADR-RES ovarian): 13.3 µM
TGI (NCI/ADR-RES ovarian): > 100 µM
GI50 (RXF 393 renal): 11.3 µM
TGI (RXF 393 renal): 38.2 µM
GI50 (SK-MEL-2 melanoma): 11.3 µM
TGI (SK-MEL-2 melanoma): 47.7 µM
GI50 (SNB-19 CNS): 18.1 µM
TGI (SNB-19 CNS): > 100 µM
GI50 (T-47D breast): 47.8 µM
TGI (T-47D breast): > 100 µM
GI50 (UACC-257 melanoma): 23.2 µM
TGI (UACC-257 melanoma): > 100 µM

CN1CCc2c1nc(-c1ccc(Cl)cc1)c1c2N(C)CC1
TGI (COLO 205 colon): 21.1 µM
TGI (HCT-116 colon): 18.9 µM
TGI (RXF 393 renal): 43.9 µM
TGI (SK-MEL-2 melanoma): > 100 µM
TGI (SNB-19 CNS): > 100 µM
TGI (UACC-257 melanoma): 32.7 µM

Cc1c(NC(=S)NC(=O)c2ccc([N+](=O)[O-])cc2)c(=O)n(-c2ccccc2)n1C
TGI (COLO 205 colon): > 100 µM
TGI (HCT-116 colon): > 100 µM
TGI (HOP-92 NSCLC): > 100 µM
TGI (NCI-H226 lung): > 100 µM
TGI (RXF 393 renal): > 100 µM
TGI (SK-MEL-2 melanoma): > 100 µM
TGI (SNB-19 CNS): > 100 µM
TGI (UACC-257 melanoma): > 100 µM
